Here are results for 10 molecules from article doi:10.1101/2025.11.03.686257v1 (bioRxiv, 2025).

In data set [1] the test system is Providencia stuartii. The data set can be described thus: Antibiotic resistance characterization of clinical isolate. The data set is classed as cell-based. To be noted: University Hospital Pontchaillou.
Data set [2] deals with normal human hepatocytes in primary culture. The data set can be described thus: Peptide-Dylight488 streptavidin cell binding assay by flow cytometry. The data set is classed as cell-based. As to conditions: peptide-Dylight488 streptavidin complexes.
The test system of data set [3] is Hepa1-6 HCC cell line. The description is as above. The data set is classed as cell-based, murine. To be noted: peptide-Dylight488 streptavidin complexes.
The test system of data set [4] is hepatic stellar-like LX2 cells. The data set is described as above. As to conditions: peptide-Dylight488 streptavidin complexes. The format is cell-based, human.
Data set [5] relates to Huh7 HCC cell line. The data set is described as above. The data set is classed as cell-based, human. As to conditions: peptide-Dylight488 streptavidin complexes.
Data set [6] relates to RLEC-like S3 cells. The description is as above. The data set is classed as cell-based, rat. To be noted: peptide-Dylight488 streptavidin complexes, established line.
Data set [7] has as its system HEK293T cells. The data set is described as above. The format is cell-based, human. As to conditions: peptide-Dylight488 streptavidin complexes.
Data set [8] has as its system HepG2 cells. Described as above. The data set is classed as cell-based, human. As to conditions: peptide-Dylight488 streptavidin complexes.
In data set [9] the test system is HepaRG-SP cells. Described as above. The data set is classed as cell-based, human. To be noted: P11^Chol-Dylight488 streptavidin complexes.
For data set [10], the system named is bipotent progenitor HepaRG cells 3 days after plating. The data set is described as above. The format is cell-based, human. To be noted: P11^Chol-Dylight488 streptavidin complexes.
A short description of data set [11]: Solubility in aqueous solution. The data set is classed as physicochemical. As to conditions: stock solutions prepared in PBS at 1mM.

For the molecule `CC1(C)S[C@@H]2[C@H](NC(=O)[C@H](N)c3ccccc3)C(=O)N2[C@H]1C(=O)O` [ampicillin], in data set [1], the “antibiotic resistance/sensitivity of the strain” value was “resistant”.
As to `O=C(N[C@H](CO)[C@H](O)c1ccc([N+](=O)[O-])cc1)C(Cl)Cl` [chloramphenicol], the “antibiotic resistance/sensitivity of the strain” value in data set [1] is “sensitive”.
As to `CC[C@H]1OC(=O)[C@H](C)[C@@H](O[C@H]2C[C@@](C)(OC)[C@@H](O)[C@H](C)O2)[C@H](C)[C@@H](O[C@@H]2O[C@H](C)C[C@H](N(C)C)[C@H]2O)[C@](C)(O)C[C@@H](C)C(=O)[C@H](C)[C@@H](O)[C@]1(C)O` [erythromycin], in data set [1], the “antibiotic resistance/sensitivity of the strain” value is recorded as “resistant”.
The same measure, in the same setting: in the case of `NC[C@H]1O[C@H](O[C@H]2[C@H](O)[C@@H](O[C@H]3O[C@H](CO)[C@@H](O)[C@H](N)[C@H]3O)[C@H](N)C[C@@H]2N)[C@H](O)[C@@H](O)[C@@H]1O` [kanamycin] it was “sensitive”.
Regarding AFLNSNGLPTYSPKIS [Hel-Pyl], the binding to cells result in [2] is “no binding”; in data set [3], “no binding”; in data set [4] it was “no binding”; in data set [5], “no binding”; in data set [6] it was “bound”.
Turning to EYLNSILSYSPSYYWI [E-select], the binding to cells result in [7] and in data set [8] was “significant binding” throughout.
GTLNNIPTY-YWGKGY [Provid-Stu]: the binding to cells result was “no binding” in [2]; “no binding” in data set [3]; “no binding” in data set [4]; “no binding” in [5]; “bound” in data set [6].
As for TFLNSVPTYSYWGGGS [P11^Chol], the “percentage of positive cells” value in data set [9] is given as “less than 1%”; in data set [10] (HepaRG D3), approximately 18%. Further, the binding to cells entry in data set [2] is recorded as “no binding”; in data set [3], “no binding”; in [4] it was “no binding”; in [5], “no binding”; in [6], “bound”. Also, in data set [10], the “increase in fluorescence intensity, HepaRG D3 versus HepaRG-SP cells” value came to 4 fold. Further, the “solubility in aqueous solution” value in data set [11] is recorded as “high solubility”.
Consider amoxicillin + clavulanic acid, for which, in data set [1], the “antibiotic resistance/sensitivity of the strain” value was “resistant”.
The same measure, in the same setting: the same measure for gentamycin: “sensitive”.
